Assay results published in patent US4072668A, “LH-RH Analogs” (The Salk Institute for Biological Studies, priority 1974, dated 1978).
Non-standard residues stand in square brackets, D forms with d. Residues, ends and D or L forms follow the SMILES beside them. pGlu = O=C1CC[C@@H](C(=O)O)N1

Experiments:
[1] = test system: pituitary gland
[2] = test system: dispersed rat pituitary cells; assay: In vitro suppression of LRF-generated LH secretion in dispersed rat pituitary cell culture; type: cell-based; settings: molar ratio of peptide to LRF; culture inoculated with 3×10^-5 M of LRF
Protocol: (§1) Using the above method, the peptide compositions set forth below in Tables I and II were prepared. The peptide compositions were assayed in vitro and in vivo. The in vitro assay was made using a 5 day old primary culture of dispersed rat pituitary cells. The LH secreted in response to the peptide compositions was assayed by specific radioimmunoassay for rat LH. The peptide compositions were applied to the culture at a level of 3×10^-5 M. The potency of these peptide compositions which stimulate secretion of gonadotropins is expressed in terms of percent LRF potency wherein LRF has a potency of 100. For those peptide compositions which are antagonistic to secretion of gonadotropins, the culture was inoculated with 3×10^-5 M of LRF and the molar ratio of the peptide required to suppress secretion of LH generated by the LRF was determined.

[3] = test system: rats; assay: In vivo suppression of LH secretion generated by injected LRF in rats; parameters: species or system rat; settings: molar ratio of peptide to LRF; rats injected with 100 nanograms of LRF
Protocol: (§2) The effectiveness of the peptide compositions which stimulate secretion of gonadotropins was determined in vivo by intravenous injection of 100 nanograms of the peptide into rats. The rats were chronically ovariectomized and were treated with estrogen and progesterone prior to assay. The LH level was determined in plasma by solid phase radioimmunoassay for rat LH. For those peptide compositions which are antagonistic to secretion of gonadotropins, the rats were injected with 100 nanograms of LRF and the molar ratio of the peptide required to suppress section of LH generated by the LRF was determined.

[4] = test system: pituitary gland; assay: Release of gonadotropins after administration to a mammal; type: in vivo; settings: 500 nanograms per kilogram of body weight
[5] = test system: pituitary gland; assay: Inhibition of release of gonadotropins by the pituitary gland (test not given); parameters: species or system mammalians; settings: relative to Gly6 peptide
[6] = test system: rats; assay: In vivo plasma LH after intravenous injection into ovariectomized, estrogen/progesterone-treated rats; parameters: species or system rat; settings: intravenous injection of 100 nanograms of peptide, LRF = 100
Protocol: as §2

[7] = test system: dispersed rat pituitary cells; assay: In vitro LH secretion by primary culture of dispersed rat pituitary cells (stimulation), rat LH radioimmunoassay; type: cell-based; settings: peptide applied to culture at 3×10^-5 M; LRF has a potency of 100
Protocol: as §1

Row | Molecule | percent potency for effecting release of luteinizing hormone (compared to the LRF decapeptide) [1] [%] | Molar ratio necessary to produce inhibition In Vitro [2] | Molar ratio necessary to produce inhibition In Vivo [3] | other results
1 | CC(C)C[C@H](NC(=O)[C@@H](CC(C)C)NC(=O)[C@H](Cc1ccc(O)cc1)NC(=O)[C@H](CO)NC(=O)[C@H](Cc1c[nH]c2ccccc12)NC(=O)[C@H](Cc1c[nH]cn1)NC(=O)[C@@H]1CCC(=O)N1)C(=O)N[C@@H](CCCNC(=N)N)C(=O)N1CCC[C@H]1C(=O)NCC(N)=O [D-Leu for Gly] | 60 | – | – | –
2 | CC(C)C[C@H](NC(=O)[C@H]1CCCN1C(=O)[C@H](Cc1ccc(O)cc1)NC(=O)[C@H](CO)NC(=O)[C@H](Cc1c[nH]c2ccccc12)NC(=O)[C@H](Cc1c[nH]cn1)NC(=O)[C@@H]1CCC(=O)N1)C(=O)N[C@@H](CCCNC(=N)N)C(=O)N1CCC[C@H]1C(=O)NCC(N)=O [D-Pro] | 10 | – | – | –
3 | CC(C)C[C@H](NC(=O)[C@H](NC(=O)[C@H](Cc1ccc(O)cc1)NC(=O)[C@H](CO)NC(=O)[C@H](Cc1c[nH]c2ccccc12)NC(=O)[C@H](Cc1c[nH]cn1)NC(=O)[C@@H]1CCC(=O)N1)C(C)C)C(=O)N[C@@H](CCCNC(=N)N)C(=O)N1CCC[C@H]1C(=O)NCC(N)=O [D-Val for Gly] | 30 | – | – | –
4 | CC(C)C[C@H](NC(=O)[C@H](C)NC(=O)[C@H](Cc1ccc(O)cc1)NC(=O)[C@H](CO)NC(=O)[C@H](Cc1c[nH]c2ccccc12)NC(=O)[C@H](Cc1c[nH]cn1)NC(=O)[C@@H]1CCC(=O)N1)C(=O)N[C@@H](CCCNC(=N)N)C(=O)N1CCC[C@H]1C(=O)NCC(N)=O [L-Ala for Gly in the 6-position of LRF] | 3 | – | – | –
5 | CCNC(=O)[C@@H]1CCCN1C(=O)[C@H](CCCNC(=N)N)NC(=O)[C@H](CC(C)C)NC(=O)[C@@H](C)NC(=O)[C@H](Cc1ccc(O)cc1)NC(=O)[C@H](CO)NC(=O)[C@H](Cc1c[nH]c2ccccc12)NC(=O)CNC(=O)[C@@H]1CCC(=O)N1 [pGlu-Gly-Trp-Ser-Tyr-D-Ala-Leu-Arg-Pro-NHCH2 CH3] ([pGlu]GWSY[dA]LRP-NHEt) | – | 700 | 500 | –
6 | CC(C)C[C@H](NC(=O)CNC(=O)[C@H](Cc1ccc(O)cc1)NC(=O)[C@H](CO)NC(=O)[C@H](Cc1c[nH]c2ccccc12)NC(=O)[C@H](Cc1c[nH]cn1)NC(=O)[C@@H]1CCC(=O)N1)C(=O)N[C@@H](CCCNC(=N)N)C(=O)N1CCC[C@H]1C(=O)NCC(N)=O [pGlu-His-Trp-Ser-Tyr-Gly-Leu-Arg-Pro-Gly-NH2] | – | – | – | release of gonadotropins by the pituitary gland (in words) [4]: significant release of gonadotropins
7 | CC(C)C[C@H](NC(=O)[C@@H](C)NC(=O)[C@H](Cc1ccc(O)cc1)NC(=O)[C@H](CO)NC(=O)[C@H](Cc1c[nH]c2ccccc12)NC(=O)[C@@H]1CCC(=O)N1)C(=O)N[C@@H](CCCNC(=N)N)C(=O)N1CCC[C@H]1C(=O)NCC(N)=O [pGlu-Trp-Ser-Tyr-D-Ala-Leu-Arg-Pro-Gly-NH2] ([pGlu]WSY[dA]LRPG-NH2) | – | 700 | 500 | times more potent as inhibitor for release of gonadotropins than the same peptide with Gly in the 6-position [5]: 3 times
8 | CC(C)C[C@H](NC(=O)CNC(=O)[C@H](Cc1ccc(O)cc1)NC(=O)[C@H](CO)NC(=O)[C@H](Cc1c[nH]c2ccccc12)NC(=O)[C@@H]1CCC(=O)N1)C(=O)N[C@@H](CCCNC(=N)N)C(=O)N1CCC[C@H]1C(=O)NCC(N)=O [pGlu-deleted-Trp-Ser-Tyr-Gly-Leu-Arg-Pro-Gly-NH2] ([pGlu]WSYGLRPG-NH2) | – | 2,000 | 3,000 | –
9 | pGlu-His-Trp-Ser-Tyr-Gly-Leu-Arg-Pro-NHCH 2 CH3 | – | – | – | Percent LRF Potency In Vivo [6]: 300%; Percent LRF Potency In Vitro [7]: 1,500%
